For this data set the following is noted: Liquid.

In general, vapor or sublimation pressure refers to the equilibrium pressure above the liquid or solid.

Where “and” joins values, the source holds several entries; their conditions need not be identical. Equal values may be shown once. ± gives the expanded uncertainty stated by the source.

Regarding `c1ccccc1` [benzene], the “vapor or sublimation pressure” value (298.15 K) worked out at 12.7 ± 0.44 kPa, the “vapor or sublimation pressure” value (303.15 K) turned out to be 15.92 ± 0.52 kPa, the “vapor or sublimation pressure” value (308.15 K) came out at 19.66 ± 0.61 kPa and the “vapor or sublimation pressure” value (313.15 K) turned out to be 24.33 ± 0.73 kPa.
For `CCO` [ethanol], the “vapor or sublimation pressure” value runs as follows: (298.15 K) 7.876 ± 0.32 kPa; (303.15 K) 10.47 ± 0.38 kPa; (308.15 K) 13.77 ± 0.47 kPa; (313.15 K) 17.93 ± 0.57 kPa.
On to `CO` [methanol], for which the “vapor or sublimation pressure” value was 16.97 ± 0.071 kPa and 16.96 ± 0.55 kPa (298.15 K); 21.88 ± 0.086 kPa and 21.88 ± 0.67 kPa (303.15 K); 27.96 ± 0.11 kPa and 27.96 ± 0.82 kPa (308.15 K); 35.44 ± 0.13 kPa and 35.45 ± 1 kPa (313.15 K); 44.54 ± 0.16 kPa (318.15 K); 55.58 ± 0.19 kPa (323.15 K).
For `CCCO` [propan-1-ol], the “vapor or sublimation pressure” value was 2.786 ± 0.19 kPa (298.15 K), 3.826 ± 0.22 kPa (303.15 K), 5.199 ± 0.25 kPa (308.15 K) and 6.986 ± 0.3 kPa (313.15 K).

Values taken from the NIST ThermoML archive (doi:10.1016/j.fluid.2005.07.008).
